# Source: patent US11692222B2, “Animal model of non-alcoholic liver disease and composition of diagnosis, prevention or treatment for non-alcoholic liver disease” (KOREA ADVANCED INSTITUTE OF SCIENCE AND TECHNOLOGY, priority 2018, dated 2023)
# How the values were obtained:
# [1] = test system: DKO mice (Pten−/−;Sav1−/−); test: MK-2206 treatment of 3-week-old DKO mice for 2 weeks (fatty liver); assay type: in vivo, mouse; conditions: 66 mg/kg i.p. every other day for 2 weeks, vs vehicle
# Protocol: (§1) Adenovirus for overexpression of CRE, YAP5SA, TAZ4SA, or GFP (control) and AAV-saCas9-sgIrs2 or sgCtl in the mouse liver were injected into the tail vain of […], respectively. The mice were deprived of food for 16 hours at day 4 (YAP5SA, TAZ4SA, and GFP) or week 4 (CRE and GFP) after adenovirus injection. MK-2206 (Selleckchem; S1078) was prepared in 30% Captisol (CyDex Pharmaceuticals; RC-0C7) and administered to DKO mice by intraperitoneal injection at a dose of 66 mg/kg every other day for 2 weeks, beginning at 3 or 12 weeks of age.
# Given the lack of treatments for NASH, the present inventors next asked whether pharmacological inhibition of AKT could ameliorate fatty liver and slow cancer progression in DKO mice. To this end, the present inventors administered the pan-AKT inhibitor MK-2206 (phase II clinical trials) intraperitoneally to 3-week-old DKO mice.
# FIGS. 8b to 8d are graphs of the result of liver-to-body weight ratio percentage, the analysis of liver enzymes in the serum, the qPCR analysis of lipogenesis-related gene expression in the liver of control (white bars) and MK-2206 (red bars), respectively.
# [2] = test system: DKO mice (Pten−/−;Sav1−/−); test: MK-2206 treatment of 12-week-old DKO mice for 2 weeks (liver cancer); assay type: in vivo, mouse
# Protocol: as §1
# Further, to investigate the suppression of liver cancer, MK-2206 was injected to 12-week-old DKO mice that 80% of them had liver tumor (FIG. 1b). The graphs of FIG. 8f are the result of the result of liver-to-body weight ratio (F), liver tumor number and size (G), serum analysis (H) of the experiment shown in FIG. 8f. The graph representing the quantification analysis of Ki-67^+ hepatocytes of specimen is shown in FIG. 8h, and a graph representing the qPCR analysis of the expression of genes related to fibrosis (Acta2, desmin, and Tgfb), cell death or injury (Hmox1 and Gadd153), or inflammation (Tnfa) is shown in FIG. 8i.
# [3] = 12-week-old DKO mice, 2 weeks treatment, vs vehicle
smiles,measurement,setting,value
NC1(c2ccc(-c3nc4ccn5c(=O)[nH]nc5c4cc3-c3ccccc3)cc2)CCC1 [MK-2206],"expression of lipogenesis-related genes (Fasn, Acc1, Srebp1c), qPCR in liver",[1],lower expression of lipogenesis-related genes
same,"fatty liver (macroscopic, H&E, Oil red O)",[1],less fatty liver
same,liver fibrosis (Sirius red),[1],reduced liver fibrosis
same,liver function (liver enzymes in serum),[1],improved liver function
same,liver weight (liver-to-body weight ratio),[1],decreased liver weight
same,fatty liver and tumorigenesis,"[2]; 12-week-old DKO mice, 66 mg/kg i.p. every other day for 2 weeks, vs vehicle",reduced fatty liver and tumorigenesis
same,Ki-67-positive cells,[2]; [3],fewer Ki-67-positive cells
same,YAP expression (IHC),[2]; [3],without a corresponding change in YAP expression
same,"expression of genes related to fibrosis (Acta2, desmin, Tgfb), cell death or injury (Hmox1, Gadd153) and inflammation (Tnfa), qPCR",[2]; [3],reduced expression of genes related to fibrosis
same,fibrosis (Picrosirius red),[2]; [3],reduced fibrosis
same,hepatocyte TAZ expression (IHC),[2]; [3],lower levels of hepatocyte TAZ expression
same,hepatocytes with excessive lipid droplets (H&E),[2]; [3],fewer hepatocytes with excessive lipid droplets
same,liver color,[2]; [3],normalized liver color
same,liver size (liver-to-body weight ratio),[2]; [3],reduced liver size
same,tumor nodule size,[2]; [3],reduction in tumor nodule size
same,development of NAFLD and liver cancer in DKO mice,"[2]; overall conclusion, DKO mice treated from 3 or 12 weeks of age",markedly attenuates the development of NAFLD and liver cancer
